For one test, the system named is LS180. Kind of test: Inhibition of P-gp in human LS180 cells assessed as reduction in doxorubicin cytotoxic IC50 level at 50 uM by MTT assay. It counts as functional.
Test [1] has as its target Vascular endothelial growth factor receptor 1 (Homo sapiens, UniProt P17948). Description: Inhibition of VEGFR1 (unknown origin) using KKKSPGEYVNIEFG substrate and [33P-g-ATP] incubated for 30 mins.
For a further test, the system named is HUVEC. Kind of test: Inhibition of VEGF-induced cell migration of HUVEC assessed as wound closure level at cytotoxic IC50 incubated for 24 hrs (reference value: 100%). Further details: scale not given: the % may be the effect or the level left. Format: functional, Homo sapiens.

The term IC50 denotes the point on the concentration scale where inhibition reaches its midpoint.

Chain of Vascular endothelial growth factor receptor 1 (P17948 whole entry): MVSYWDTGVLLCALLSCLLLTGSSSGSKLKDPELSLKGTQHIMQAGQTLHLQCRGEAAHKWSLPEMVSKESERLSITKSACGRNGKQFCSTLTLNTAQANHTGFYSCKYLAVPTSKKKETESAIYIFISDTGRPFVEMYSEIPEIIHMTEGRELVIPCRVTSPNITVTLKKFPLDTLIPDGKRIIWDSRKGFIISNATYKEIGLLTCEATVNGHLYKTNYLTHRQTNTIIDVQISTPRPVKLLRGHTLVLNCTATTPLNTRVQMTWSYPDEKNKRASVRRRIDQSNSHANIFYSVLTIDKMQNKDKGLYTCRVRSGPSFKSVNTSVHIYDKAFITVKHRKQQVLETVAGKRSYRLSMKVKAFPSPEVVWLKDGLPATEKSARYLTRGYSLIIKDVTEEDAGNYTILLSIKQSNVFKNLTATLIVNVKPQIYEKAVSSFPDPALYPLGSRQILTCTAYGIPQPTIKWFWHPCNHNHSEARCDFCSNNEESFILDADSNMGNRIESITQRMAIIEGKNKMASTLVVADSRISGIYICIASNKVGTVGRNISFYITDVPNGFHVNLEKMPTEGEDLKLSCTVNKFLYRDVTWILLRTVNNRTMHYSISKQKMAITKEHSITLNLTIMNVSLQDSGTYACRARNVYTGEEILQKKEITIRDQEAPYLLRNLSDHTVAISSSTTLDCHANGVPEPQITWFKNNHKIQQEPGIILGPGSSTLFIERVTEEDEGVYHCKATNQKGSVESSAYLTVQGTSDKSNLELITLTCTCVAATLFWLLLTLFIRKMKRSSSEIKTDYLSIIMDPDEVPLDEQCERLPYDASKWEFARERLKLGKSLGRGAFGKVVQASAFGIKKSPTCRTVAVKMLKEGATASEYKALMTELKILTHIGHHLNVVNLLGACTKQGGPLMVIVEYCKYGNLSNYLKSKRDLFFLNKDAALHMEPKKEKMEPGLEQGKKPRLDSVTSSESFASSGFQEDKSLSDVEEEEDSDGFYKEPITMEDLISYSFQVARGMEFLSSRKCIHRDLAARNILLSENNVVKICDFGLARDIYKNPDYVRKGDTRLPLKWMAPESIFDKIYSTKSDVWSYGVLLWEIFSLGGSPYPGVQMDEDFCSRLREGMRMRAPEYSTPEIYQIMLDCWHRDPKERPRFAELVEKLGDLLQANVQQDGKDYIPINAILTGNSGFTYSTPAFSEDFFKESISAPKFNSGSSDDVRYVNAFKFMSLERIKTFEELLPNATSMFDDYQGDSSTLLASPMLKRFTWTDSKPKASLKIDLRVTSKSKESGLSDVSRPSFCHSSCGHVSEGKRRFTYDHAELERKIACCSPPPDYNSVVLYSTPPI

In the case of `O=C(Nc1ccc(F)cc1)c1sccc1Nc1cccc2c1OCO2`, the “Ratio IC50” value in the test with LS180 turned out to be 14. The same compound returned an IC50 in test [1] of 2500 nM. In addition, the Activity in the test on HUVEC is 20%.

Values taken from ChEMBL document CHEMBL4270497, “Recent advances (2015-2016) in anticancer hybrids” (Eur J Med Chem, 2017).
